Assay results published in article PMC9027957, “Interspecies Comparisons of the Effects of Potential Antiviral 3-Amidinophenylalanine Derivatives on Cytochrome P450 1A2 Isoenzyme” (Veterinary Sciences, 2022).

Legend:
[1] = 60 min microsomal stability assay (UPLC-MS/MS), rat liver microsomes; type: in vitro ADME; details: 50 µM
Procedure: (§1) Rat, beagle (Gibco, Biocenter, Szeged, Hungary), and cynomolgus monkey (Primacyt, Schwerin, Germany) liver microsomes were exposed to inhibitors MI-432, MI-463, MI-482, or MI-1900 at 50 µM for 60 min. The final microsomal protein concentration in the suspension was 0.6 mg/mL in each case. The reaction buffer (100 mM phosphate buffer pH 7.4) also contained 1 mM nicotinamide adenine dinucleotide phosphate (NADPH), 5 mM MgCl2, 10 mM glucose-6-phosphate (G6P), and 2 IU/mL glucose-6-phosphate dehydrogenase (G6PD). The reaction was terminated by the addition of ice-cold acetonitrile (ACN) with the ratio of sample ACN volume = 1:2. The precipitated protein was removed by centrifugation at 10,000× g for 10 min, and the supernatants were used for subsequent analyses.
(§2) The determination of all analytes was carried out using an UPLC/MS/MS system, which consisted of an HPLC apparatus (SCIEX ExionLC^TM UPLC, Framigham, MA, USA) and a SCIEX Qtrap 4500 triple-quadrupole mass spectrometer (Framigham, MA, USA) equipped with a SCIEX Turbo V electrospray ionization source. The HPLC columns used were LiChrospher RP Select B (125 × 4.0 mm, 5.0 μm, C8 stationary phase). Next, 0.1% trifluoroacetic acid in ultra-purified water (A) and acetonitrile (B) were used as mobile phases for chromatographic separations applying a gradient elution. The HPLC gradient program was the following: between 0 and 10 min, a ratio of 70% A and 30% B; from 10 to 20 min, linearly increasing to a ratio of 50% A and 50% B; from 20 to 21 min, maintained at a ratio of 50% A and 50% B; from 21 to 22 min, linearly decreasing back to a ratio of 70% A and 30% B; and between 22 min and 30 min, maintained at a ratio of 70% A and 30% B. The run time was 30 min, the column temperature was adjusted to 35 °C, and the flow rate was 1 mL/min.

[2] = 60 min microsomal stability assay (UPLC-MS/MS), beagle liver microsomes; type: in vitro ADME; details: 50 µM
Procedure: as §1, §2

[3] = 60 min microsomal stability assay (UPLC-MS/MS), cynomolgus monkey liver microsomes; type: in vitro ADME; details: 50 µM
Procedure: as §1, §2

CYP1A2 [4] = target: T1, CYP1A2 (Macaca fascicularis, UniProt O77809); details: 2 h, 50 µM
T1 sequence (O77809 1-516): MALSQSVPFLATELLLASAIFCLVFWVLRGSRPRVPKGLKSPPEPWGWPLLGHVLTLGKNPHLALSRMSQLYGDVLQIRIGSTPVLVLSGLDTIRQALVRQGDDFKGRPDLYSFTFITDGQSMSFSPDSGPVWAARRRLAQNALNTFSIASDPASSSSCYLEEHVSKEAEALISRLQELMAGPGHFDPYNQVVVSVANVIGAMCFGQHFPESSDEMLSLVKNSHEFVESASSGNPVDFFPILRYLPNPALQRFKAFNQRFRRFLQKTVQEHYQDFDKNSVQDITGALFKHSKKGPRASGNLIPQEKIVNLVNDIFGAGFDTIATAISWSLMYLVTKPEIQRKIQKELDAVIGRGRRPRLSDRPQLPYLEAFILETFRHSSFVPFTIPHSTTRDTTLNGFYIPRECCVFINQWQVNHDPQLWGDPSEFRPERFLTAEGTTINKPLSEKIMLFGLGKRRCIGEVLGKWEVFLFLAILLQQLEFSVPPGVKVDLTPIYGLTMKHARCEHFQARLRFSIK
Procedure: For the measurements of CYP1A2 activities, hepatocytes were grown on 24-well collagen-coated membrane inserts (Costar Transwell-PTFE membrane, 6.5 mm, pore size: 0.4 µm, Merck, Darmstadt, Germany). […] The determination of the CYP1A2 activities were performed using the P450-Glo CYP450 Assay (Promega, Madison, WI, USA) according to the manufacturer’s instructions.

SARS-CoV-2 = system: SARS-CoV-2; design: method as in PMID 32703818; details: infected human airway epithelial Calu 3 cells, dose-dependent; cited from earlier work
CYP1A2 [5] = target: T1, CYP1A2; experiment: CYP1A2 fluorometric activity assay in cynomolgus monkey hepatic microsomes; type: in vitro ADME; design: cynomolgus monkey microsomal suspension (Primacyt, Schwerin, Germany, protein concentration: 5 mg/mL); tissue Primacyt, Schwerin, Germany; host or cells: liver (hepatic microsomes)
Procedure: The Biovision CYP assay (BioVision, Inc., Kampenhout, Belgium) utilizes a non-fluorescent CYP1A2 substrate capable of transforming into a highly fluorescent metabolite, which can be detected in the visible range. α-naphthoflavone was used as a CYP1A2 reference inhibitor at 6 µM during the experiments. Rat (Sprague–Dawley) and beagle (Gibco, Biocenter, Szeged, Hungary, protein concentration: 20 mg/mL) hepatic microsomal preparations were prepared separately by mixing 25 µL of the obtained rat or beagle microsomal suspension with 2425 µL assay buffer and with 50 µL NADPH generating system (100×). In the case of the cynomolgus monkey microsomal suspension (Primacyt, Schwerin, Germany, protein concentration: 5 mg/mL), the following volumes were applied: in addition to 100 µL of monkey microsomal suspension, the amount of assay buffer and the NADPH generating system were adjusted in order to ensure the original ratios of these components to reach a final volume of 2500 µL. Rat, beagle, and cynomolgus monkey microsomal suspension aliquots (50 µL) were treated with the protease inhibitor 20 µL, 0–1000 µM), the reference compound α-naphthoflavone (20 µL, 30 µM), or the assay buffer without test compounds (20 µL, background control) for 15 min at 37 °C. After incubation, 30 µL of the appropriate CYP1A2 substrate/NADP+ mixture was added to each well, yielding a final reaction volume of 100 µL/well. The protein contents of the obtained microsomes were analysed using bicinchoninic acid protein assay kit (Pierce BCA kit, Thermo Fisher Scientific, Waltham, MA, USA). […] The fluorescence intensities were measured with a fluorometer (Victor X2 2030, Perkin Elmer, Waltham, MA, USA), using λEx/Em = 406/468 nm.

Structure (SMILES)	depletion percentage of the parent compound ([1]; Sprague-Dawley, rat, pH 7.4) [%]	depletion percentage of the parent compound ([2]; beagle, dog, pH 7.4) [%]	depletion percentage of the parent compound ([3]; cynomolgus monkey, pH 7.4) [%]	CYP1A2 activity in cynomolgus monkey hepatocytes (CYP1A2 [4])	SARS-CoV-2 titers (SARS-CoV-2)	IC50 (CYP1A2 [5]) [nM]	CYP1A2 in the cynomolgus monkey microsomal model (CYP1A2 [5]; microsomes)	depletion percentage of the parent compound ([1]; rat microsomes, 0.6 mg/mL protein, mean ± SD (n = 3)) [%]	depletion percentage of the parent compound ([2]; beagle microsomes, 0.6 mg/mL protein, mean ± SD (n = 3)) [%]	depletion percentage of the parent compound ([3]; monkey microsomes, 0.6 mg/mL protein, mean ± SD (n = 3)) [%]	CYP1A2 in the cynomolgus monkey microsomal model (CYP1A2 [5]; inhibitors at 50 µM)
N=C(N)c1cccc(C[C@H](NS(=O)(=O)c2cccc(-c3ccc(Cl)cc3Cl)c2)C(=O)N2CCC(CCN)CC2)c1 [MI-432]	28 ± 3.1	23.8 ± 7	19.6 ± 5.8	significantly decrease the activity of CYP1A2	reduced	1300 ± 140	inhibited	–	–	–	–
COc1ccc(-c2cccc(S(=O)(=O)N[C@@H](Cc3cccc(C(=N)N)c3)C(=O)N3CCN(C(=O)NC4CCCCC4)CC3)c2)c(OC)c1 [MI-1900]	–	–	–	significantly decrease the activity of CYP1A2	reduced	1100 ± 800	–	30.7 ± 11.7	23.7 ± 11.1	26.7 ± 10.8	inhibited
